Laboratory results from US11021481B2, “Substituted isoindolin-1-ones and 2,3-dihydro-1h-pyrrolo[3,4-c]pyridin-1-ones as HPK1 antagonists” (Nimbus Saturn, Inc., priority 2019, dated 2021).
pIC50: −log10 of the molar value.

These compounds were tested against HPK1 (Homo sapiens (Human), UniProt Q92918) (assay: HPK1 biochemical enzyme assay (microfluidic mobility shift assay)). Settings: 1.5 nM HPK1, ATP 1 mM final, 30 min preincubation, 60 min at RT, Caliper EZ Reader; read-out: HPK1 1000UMATP caliper IC50.
Outline: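 Ten-point compound titrations (top 3 μM final) preincubated 30 min with HPK1 and substrate, then reaction started with 1 mM ATP and 1 μM substrate, 5 mM MgCl2. After 60 min at RT, reaction terminated and product measured by microfluidic mobility shift.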

Sequence of HPK1 (Q92918 whole entry): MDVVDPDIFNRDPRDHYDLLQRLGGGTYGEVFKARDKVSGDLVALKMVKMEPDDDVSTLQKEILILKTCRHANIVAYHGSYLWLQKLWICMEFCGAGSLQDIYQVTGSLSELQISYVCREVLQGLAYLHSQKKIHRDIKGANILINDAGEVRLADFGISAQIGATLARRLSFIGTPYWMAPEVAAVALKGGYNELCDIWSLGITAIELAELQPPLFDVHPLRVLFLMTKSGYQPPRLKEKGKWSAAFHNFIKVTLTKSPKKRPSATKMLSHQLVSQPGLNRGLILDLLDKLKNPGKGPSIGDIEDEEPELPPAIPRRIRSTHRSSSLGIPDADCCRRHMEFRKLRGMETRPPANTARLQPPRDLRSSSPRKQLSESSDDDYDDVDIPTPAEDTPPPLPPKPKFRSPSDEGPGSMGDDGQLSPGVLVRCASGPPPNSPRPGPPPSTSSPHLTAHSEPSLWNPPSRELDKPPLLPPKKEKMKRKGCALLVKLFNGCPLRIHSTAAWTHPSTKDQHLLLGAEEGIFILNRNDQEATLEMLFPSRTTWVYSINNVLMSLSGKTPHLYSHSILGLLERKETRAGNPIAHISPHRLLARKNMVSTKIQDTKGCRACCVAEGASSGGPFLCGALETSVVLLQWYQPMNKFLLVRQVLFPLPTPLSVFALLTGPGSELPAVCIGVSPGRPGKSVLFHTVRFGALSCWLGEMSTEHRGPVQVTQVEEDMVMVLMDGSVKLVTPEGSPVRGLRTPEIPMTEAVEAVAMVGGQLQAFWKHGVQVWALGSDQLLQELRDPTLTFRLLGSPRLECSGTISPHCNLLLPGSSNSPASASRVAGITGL

Row | Structure (SMILES) | pIC50
1 | CCNC(=O)c1ccn2c(-c3ccc(Nc4ccc(N5CCC(O)CC5)cn4)c4c3CNC4=O)cnc2c1 [I-195, N-ethyl-3-[7-[[5-(4-hydroxy-1-piperidyl)-2-pyridyl]amino]-1-oxo-isoindolin-4-yl]imidazo[1,2-a]pyridine-7-carboxamide] | 6.00 to 7.00
2 | O=C1NCc2c(-c3cnc4cc(CO)ccn34)ccc(Nc3ccc(N4CCOCC4)cn3)c21 [I-196, 4-[7-(hydroxymeth-yl)imidazo[1,2-a]pyridin-3-yl]-7-[(5-morpholino-2-pyridyl)amino] isoindolin-1-one] | > 7.00
3 | Cn1ccc2c(-c3c(F)cc(Nc4ccc(N5CCC(O)CC5)cn4)c4c3CNC4=O)ccnc21 [I-197, 5-fluoro-7-[[5-(4-hydroxy-1-piperidyl)-2-pyridyl]amino]-4-(1-methylpyrrolo[2,3-b]pyridin-4-yl)isoindolin-1-one] | > 7.00
4 | O=C1NCc2c(-c3cnc4cccnn34)ncc(Nc3ccc(N4CCC(O)CC4)cn3)c21 [I-199, 7-[[5-(4-hydroxy-1-piperidyl)-2-pyripyl]amino]-4-imidazo[1,2-b]pyridazin-3-yl-2,3-dihydropyrrolo [3,4-c]pyridin-1-one] | 6.00 to 7.00
5 | O=C1NCc2c(-c3ccnc4c3ccn4C(F)F)ncc(Nc3ccc(N4CCC(O)CC4)cn3)c21 [I-200, 4-[1-(difluorometh-yl)pyrrolo[2,3-b]pyridin-4-yl]-7-[[5-(4-hydroxy-1-piperidyl)-2-pyridyl]-amino]-2,3-dihxdropyrrolo [3,4-c]pyridin-1-one] | > 7.00
6 | O=C1NCc2c(-c3cnc4cc(OCCO)ccn34)ccc(Nc3ccc(N4CCOCC4)cn3)c21 [I-201, 4-[7-(2-hydroxyeth-oxy)imidazo[1,2-a]pyridin-3-yl]-7-[(5-morpholino-2-pyridyl)amino] isoindolin-1-one] | > 7.00
7 | CC(C)(O)[C@@H]1CCCN(c2ccc(Nc3ccc(-c4cnc5cc(F)ccn45)c4c3C(=O)NC4)nc2)C1 [I-202] | > 7.00
8 | O=C1NCc2c(-c3cnc4cc(F)ccn34)ccc(Nc3ccc(N4CCC(C(=O)O)CC4)cn3)c21 [I-203, l-[6-[[7-(7-fluoroimidazo [1,2-a]pyridin-3-yl)-3-oxo-isoindolin-4-yl]amino]-3-pyridyl]piper-idine-4-carboxylic acid] | > 7.00
9 | O=C1NCc2c(-c3cnc4cc(F)ccn34)ccc(Nc3ccc(N4CCC(CO)CC4)cn3)c21 [I-204, 4-(7-fluoroimidazo [1,2-a]pyridin-3-yl)-7-[[5-[4-(hydroxymeth-yl]-1-piperipyl]-2-pyripyl]-amino]isoin-dolin-1-one] | > 7.00
10 | COCCNc1ccn2c(-c3ccc(Nc4ccc(N5CCC(O)CC5)cn4)c4c3CNC4=O)cnc2c1 [I-205, 7-[[5-(4-hydroxy-1-piperidyl)-2-pyridyl]-amino]-4-[7-(2-methoxyethyl-amino)imidazo [1,2-a]pyridin-3-yl]isoindolin-1-one] | 6.00 to 7.00
11 | COCCNc1ccn2c(-c3ccc(Nc4ccc(N5CCOCC5)cn4)c4c3CNC4=O)cnc2c1 [I-206, 4-[7-(2-methoxyethyl-amino)imidazo [1,2-a]pyridin-3-yl]-7-[(5-morpholino-2-pyridyl)amino] isoindolin-1-one] | 6.00 to 7.00
12 | CCNC(=O)c1ccn2c(-c3ccc(Nc4ccc(N5CCOCC5)cn4)c4c3CNC4=O)cnc2c1 [I-207, N-ethyl-3-[7-[(5-morpholino-2-pyridyl)-amino]-1-oxo-isoindolin-4-yl]imidazo[1,2-a]pyridine-7-carboxamide] | 6.00 to 7.00
13 | O=C1NCc2c(-c3cnc4cnccn34)ncc(Nc3ccc(N4CCC(O)CC4)cn3)c21 [I-208, 7-[[5-(4-hydroxy-1-piperidyl)-2-pyridyl]-amino]-4-imidazo[1,2-a]pyrazin-3-yl-2,3-dihydropyrrolo [3,4-c]pyridin-1-one] | 6.00 to 7.00
14 | Cc1c(F)ccn2c(-c3ccc(Nc4ccc(N5CCC(O)CC5)cn4)c4c3CNC4=O)cnc12 [I-209, 4-(7-fluoro-8-methyl-imidazo[1,2-a]pyridin-3-yl)-7-[[5-(4-hydroxy-1-piperidyl)-2-pyridyl]amino] isoindolin-1-one] | > 7.00
15 | CC(C)(O)[C@H]1CCCN(c2ccc(Nc3cnc(-c4cnc5ccccn45)c4c3C(=O)NC4)nc2)C1 [I-210, 7-[[5-[(3S)-3-(1-hydroxy-1-methyl-ethyl)-1-piperipyl]-2-pyridyl]-amino]-4-imidazo[1,2-a]pyridin-3-yl-2.3-dihydropyrrolo [3,4-c]pyridin-1-one] | > 7.00

The remaining lines, values ahead:

Row | pIC50 | Structure (SMILES)
16 | > 7.00 | Cn1ccc2c(-c3ncc(Nc4ccc(N5CCC[C@H](C(C)(C)O)C5)cn4)c4c3CNC4=O)ccnc21 [I-211, 7-[[5-[(3S)-3-(1-hydroxy-1-methyl-ethyl)-1-piperidyl]-2-pyridyl]-amino]-4-(1-methylpyrrolo [2,3-b]pyridin-4-yl)-2,3-dihydropyrrolo [3,4-c]pyridin-1-one]
17 | > 7.00 | Cn1ccc2c(-c3ncc(Nc4ccc(N5CCC[C@@H](C(C)(C)O)C5)cn4)c4c3CNC4=O)ccnc21 [I-212, 7-[[5-[(3R)-3-(1-hydroxy-1-methyl-ethyl)-1-piperidyl]-2-pyridyl]amino]-4-(1-methylpyrrolo [2,3-b]pyridin-4-yl)-2,3-dihydropyrrolo [3,4-c]pyridin-1-one]
18 | > 7.00 | CC(C)(O)[C@H]1CCCN(c2ccc(Nc3ccc(-c4cnc5cc(F)ccn45)c4c3C(=O)NC4)nc2)C1 [I-213, 4-(7-fluoroimidazo [1,2-a]pyridin-3-yl)-7-[[5-[(3S)-3-(1-hydroxy-1-methyl-ethyl)-1-piperidyl]-2-pyridyl]amino] isoindolin-1-one]
19 | > 7.00 | C[C@H](O)C1CCN(c2ccc(Nc3ccc(-c4cnc5cc(F)ccn45)c4c3C(=O)NC4)nc2)CC1 [I-214, 4-(7-fluoroimidazo [1,2-a]pyridin-3-yl)-7-[[5-[4-[(1S)-1-hydroxyethyl]-l-piperidyl]-2-pyridyl]amino] isoindolin-1-one]
20 | 6.00 to 7.00 | Cc1cnc2c(-c3ccc(Nc4ccc(N5CCC(O)CC5)cn4)c4c3CNC4=O)cccn12 [I-215, 7-[[5-(4-hydroxy-1-piperidyl)-2-pyridyl]-amino]-4-(3-methylimidazo [1,2-a]pyridin-8-yl)isoindolin-1-one]
21 | > 7.00 | Cn1ccc2c(-c3ncc(Nc4ccc(N5CCC[C@H](C(C)(C)O)C5)cn4)c4c3CNC4=O)cccc21 [I-216, 7-[[5-[(3S)-3-(1-hydroxy-1-methyl-ethyl)-1-piperidyl]-2-pyridyl]-amino]-4-(1-methylindol-4-yl)-2,3-dihydropyrrolo [3,4-c]pyridin-1-one]
22 | > 7.00 | Cn1ccc2c(-c3ncc(Nc4ccc([C@H]5CCOC5)cn4)c4c3CNC4=O)ccnc21 [I-217, (R)-4-(1-methyl-1H-pyrrolo[2,3-b]pyridin-4-yl)-7-((5-(tetrahydro-furan-3-yl)pyridin-2-yl)amino)-2,3-dihydro-1H-pyrrolo[3,4-c]pyridin-1-one]
23 | > 7.00 | O=C1NCc2c(-c3cnc4cc(F)ccn34)ccc(Nc3ccc([C@H]4CCOC4)cn3)c21 [I-218, (R)-4-(7-fluoroimidazo [1,2-a]pyridin-3-yl)-7-((5-(tetrahydrofuran-3-yl)pyridin-2-yl)amino)isoin-dolin-1-one]
24 | > 7.00 | Cn1ccc2c(-c3ncc(Nc4ccc([C@@H]5CCOC5)cn4)c4c3CNC4=O)ccnc21 [I-219, (S)-4-(1-methyl-1H-pyrrolo[2,3-b]pyridin-4-yl)-7-((5-(tetrahydro-furan-3-yl)pyridin-2-yl)amino)-2,3-dihydro-1H-pyrrolo[3,4-c]pyridin-1-one]
25 | > 7.00 | CC(C)(O)[C@@H]1CCCN(c2ccc(Nc3cnc(-c4cnc5ccccn45)c4c3C(=O)NC4)nc2)C1 [I-220, 7-[[5-[(3R)-3-(1-hydroxy-1-methyl-ethyl)-1-piperidyl]-2-pyridyl]-amino]-4-imidazo[1,2-a]pyridin-3-yl-2,3-dihydropyrrolo [3,4-c]pyridin-1-one]
26 | > 7.00 | O=C1NCc2c(-c3cnc4cc(F)ccn34)ccc(Nc3ccc([C@@H]4CCOC4)cn3)c21 [I-222, (S)-4-(7-fluoroimidazo [1,2-a]pyridin-3-yl)-7-((5-(tetrahydro-furan-3-yl)pyridin-2-yl)amino)isoin-dolin-1-one]
27 | > 7.00 | Cn1ccc2c(-c3ncc(Nc4ccc(N5CCC[C@@H](C(C)(C)O)C5)cn4)c4c3CNC4=O)cccc21 [I-223, 7-[[5-[(3R)-3-(1-hydroxy-1-methyl-ethyl)-1-piperipyl]-2-pyridyl]-amino]-4-(1-methylindol-4-yl)-2,3-dihydropyrrolo [3,4-c]pyridin-1-one]
28 | > 7.00 | CC(C)(O)C1CCN(c2ccc(Nc3ccc(-c4cnc5cc(F)ccn45)c4c3C(=O)NC4)nc2)CC1 [I-224]
29 | > 7.00 | Cc1ccn2c(-c3ccc(Nc4ccc(N5CCC[C@H](C(C)(C)O)C5)cn4)c4c3CNC4=O)cnc2n1 [I-225, 7-[[5-[(3S)-3-(1-hydroxy-1-methyl-ethyl)-1-piperidyl]-2-pyridyl]-amino]-4-(7-methylimidazo [1,2-a]pyrimidin-3-yl)isoindolin-1-one]
30 | 6.00 to 7.00 | CC(C)(O)[C@@H]1CCCN(c2ccc(Nc3cnc(-c4cnc5cc(F)ccn45)c4c3C(=O)NC4)nc2)C1 [I-226, (R)-4-(7-fluoroimidazo[1,2-a]pyridin-3-yl)-7-((5-(3-(2-hydroxypropan-2-yl)piperidin-1-yl)pyridin-2-yl)amino)-2,3-dihydro-1H-pyrrolo[3,4-c]pyridin-1-one]
31 | > 7.00 | CN(C)CCNC(=O)C(C)(C)c1ccc(Nc2ccc(-c3cnc4cc(F)ccn34)c3c2C(=O)NC3)nc1 [I-227, N-[2-(dimethylami-no)ethyl]-2-[6-[[7-(7-fluoroimidazo [1,2-a]pyridin-3-yl)-3-oxo-isoindolin-4-yl]amino]-3-pyridyl]-2-methyl-propanamide]
32 | 6.00 to 7.00 | CNC1CCN(c2cccc(Nc3cnc(-c4ccnc5c4ccn5C)c4c3C(=O)NC4)n2)CC1 [I-228, 7-[[6-[4-(methylamino)-1-piperidyl]-2-pyridyl]amino]-4-(1-methylpyrrolo [2,3-b]pyridin-4-yl)-2,3-dihydropyrrolo [3,4-c]pyridin-1-one]
33 | > 7.00 | Cc1cc2c(-c3ncc(Nc4ccc(N5CCC[C@H](C(C)(C)O)C5)cn4)c4c3CNC4=O)ccnc2n1C [I-229]
